This passage reports Ki results from US20110021565A1, “PIPERIDINE DERIVATIVES AS NK3 ANTAGONISTS” (priority 2007, published 2011).

The first assay concerns the target T1, recombinant human NK3 receptor (Homo sapiens, UniProt P29371).
T1 construct: expressed in transfected cells; host or cells: HEK293 cells, transient expression; membrane preparation
T1 sequence (P29371 1-465): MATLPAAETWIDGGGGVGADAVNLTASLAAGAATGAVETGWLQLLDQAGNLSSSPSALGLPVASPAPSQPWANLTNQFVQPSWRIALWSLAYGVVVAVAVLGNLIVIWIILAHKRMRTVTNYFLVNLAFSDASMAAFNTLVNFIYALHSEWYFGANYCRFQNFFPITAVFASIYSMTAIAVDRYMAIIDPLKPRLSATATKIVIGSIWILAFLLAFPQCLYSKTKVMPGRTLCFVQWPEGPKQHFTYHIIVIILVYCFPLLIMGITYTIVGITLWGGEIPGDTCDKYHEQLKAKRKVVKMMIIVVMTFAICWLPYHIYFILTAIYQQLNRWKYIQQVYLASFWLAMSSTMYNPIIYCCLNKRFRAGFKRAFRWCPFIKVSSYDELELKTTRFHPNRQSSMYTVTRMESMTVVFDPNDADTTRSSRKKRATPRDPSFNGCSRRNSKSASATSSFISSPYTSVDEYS
As to the kind of experiment: [3H]SR142801 competition binding assay. To be noted: [3H]SR142801, membranes of HEK293 cells transiently expressing recombinant human NK3 receptor; read-out: hNK3 Ki. How it is done:
[^3H]SR142801 Competition Binding Assay
hNK3 receptor binding experiment were performed using [^3H]SR142801 (Catalog No. TRK1035, specific activity: 74.0 Ci/mmol, Amersham, GE Healthcare UK limited, Buckinghamshire, UK) and membrane isolated from HEK293 cells transiently expressing recombinant human NK3 receptor. After thawing, the membrane homogenates were centrifuged at 48,000×g for 10 min at 4° C., the pellets were resuspended in the 50 mM Tris-HCl, 4 mM MnCl2, 1 μM phosphoramidon, 0.1% BSA binding buffer at pH 7.4 to a final assay concentration of 5 μg protein/well. For inhibition experiments, membranes were incubated with [^3H]SR142801 at a concentration equal to KD value of radioligand and 10 concentrations of the inhibitory compound (0.0003-10 μM) (in a total reaction volume of 500 μl) for 75 min at room temperature (RT). At the end of the incubation, membranes were filtered onto unitfilter (96-well white microplate with bonded GF/C filter preincubated 1 h in 0.3% PEI+0.3% BSA, Packard BioScience, Meriden, Conn.) with a Filtermate 196 harvester (Packard BioScience) and washed 4 times with ice-cold 50 mM Tris-HCl, pH 7.4 buffer. Nonspecific binding was measured in the presence of 10 μM SB222200 for both radioligands. The radioactivity on the filter was counted (5 min) on a Packard Top-count microplate scintillation counter with quenching correction after addition of 45 μl of microscint 40 (Canberra Packard S. A., Zurich, Switzerland) and shaking for 1 h. Inhibition curves were fitted according to the Hill equation: y=100/(1+(x/IC50)^nH), where nH=slope factor using Excel-fit 4 software ([…]). IC50 values were derived from the inhibition curve and the affinity constant (IQ values were calculated using the Cheng-Prussoff equation Ki=IC50/(1+[L]/KD) where [L] is the concentration of radioligand and KD is its dissociation constant at the receptor, derived from the saturation isotherm. All experiments were performed in duplicate and the mean±standard error (SEM) of the individual Ki values was calculated.
As for `CCN(C(C)=O)C1CCN(CCC(C)(C(=O)N[C@@H](CO)c2ccc(F)cc2)c2ccc(Cl)c(Cl)c2)CC1` (single isomer, unassigned; epimer 1) [Example 166], the Ki came out at 2.2 nM. In the case of `CCCN(C(C)=O)C1CCN(CCC(C)(C(=O)N[C@@H](CO)c2ccc(F)cc2)c2ccc(Cl)c(Cl)c2)CC1` (single isomer, unassigned; epimer 2) [Example 163], the Ki worked out at 5.6 nM.

As for `CCN(C(C)=O)C1CCN(CCC(C)(C(=O)N[C@@H](CO)c2ccc(F)cc2)c2ccc(Cl)c(Cl)c2)CC1` (single isomer, unassigned; epimer 2) [Example 167], the Ki was determined as 34.9 nM.

`COCCN(C(C)=O)C1CCN(CCC(C)(C(=O)N[C@@H](CO)c2ccc(Cl)cc2)c2ccc(Cl)c(Cl)c2)CC1` (stereo in doubt) [Example 147, 4-{4-[Acetyl-(2-methoxy-ethyl)-amino]-piperidin-1-yl}-N-[1-(4-chloro-phenyl)-2-hydroxy-ethyl]-2-(3,4-dichloro-phenyl)-2-methyl-butyramide]: the Ki is 382 nM.

Consider `COc1ccc(CN(C)C(=O)C(C)(CCN2CCC(NS(C)(=O)=O)CC2)c2ccc(Cl)c(Cl)c2)cc1F` (stereo not shown) [Example 1, 2-(3,4-Dichloro-phenyl)-N-(3-fluoro-4-methoxy-benzyl)-4-(4-methanesulfonylamino-piperidin-1-yl)-2,N-dimethyl-butyramide], for which the Ki amounted to 187 nM. Consider `COc1ccc(C(NC(=O)C(C)(CCN2CCC(NS(C)(=O)=O)CC2)c2ccc(Cl)c(Cl)c2)C2CC2)cc1` (stereo not shown) [Example 2, N-[Cyclopropyl-(4-methoxy-phenyl)-methyl]-2-(3,4-dichloro-phenyl)-4-(4-methanesulfonyl-amino-piperidin-1-yl)-2-methyl-butyramide], for which the Ki came to 703 nM.

In the case of `CN(Cc1ccc(F)c(C(F)(F)F)c1)C(=O)C(C)(CCN1CCC(NS(C)(=O)=O)CC1)c1ccc(Cl)c(Cl)c1` (stereo not shown) [Example 3, 2-(3,4-Dichloro-phenyl)-N-(4-fluoro-3-trifluoromethyl-benzyl)-4-(4-methanesulfonyl-amino-piperidin-1-yl)-2,N-dimethyl-butyramide], the Ki stood at 23.2 nM. In the case of `CC(CCN1CCC(NS(C)(=O)=O)CC1)(C(=O)NCc1cc(C(F)(F)F)cc(C(F)(F)F)c1)c1ccc(Cl)c(Cl)c1` (stereo not shown) [Example 4, N-(3,5-Bis-trifluoromethyl-benzyl)-2-(3,4-dichloro-phenyl)-4-(4-methanesulfonyl-amino-piperidin-1-yl)-2-methyl-butyramide], the Ki stood at 140 nM. `COc1cc(CN(C)C(=O)C(C)(CCN2CCC(NS(C)(=O)=O)CC2)c2ccc(Cl)c(Cl)c2)ccc1OC(F)F` (stereo not shown) [Example 5, 2-(3,4-Dichloro-phenyl)-N-(4-difluoromethoxy-3-methoxy-benzyl)-4-(4-methanesulfonyl-amino-piperidin-1-yl)-2,N-dimethyl-butyramide]: the inhibition constant Ki came out at 272 nM.

As for `Cc1ccc(CN(C)C(=O)C(C)(CCN2CCC(NS(C)(=O)=O)CC2)c2ccc(Cl)c(Cl)c2)cc1` (stereo not shown) [Example 6, 2-(3,4-Dichloro-phenyl)-4-(4-methanesulfonyl-amino-piperidin-1-yl)-2,N-dimethyl-N-(4-methyl-benzyl)-butyramide], the inhibition constant (Ki) was determined as 77.4 nM. Still for that read-out and setting: as for `CN(C)c1ccc(CNC(=O)C(C)(CCN2CCC(NS(C)(=O)=O)CC2)c2ccc(Cl)c(Cl)c2)cc1` (stereo not shown) [Example 7, 2-(3,4-Dichloro-phenyl)-N-(4-dimethylamino-benzyl)-4-(4-methanesulfonyl-amino-piperidin-1-yl)-2-methyl-butyramide], the figure is 621 nM; as for `CN(Cc1ccc(Cl)c(C(F)(F)F)c1)C(=O)C(C)(CCN1CCC(NS(C)(=O)=O)CC1)c1ccc(Cl)c(Cl)c1` (stereo not shown) [Example 8, N-(4-Chloro-3-trifluoromethyl-benzyl)-2-(3,4-dichloro-phenyl)-4-(4-methanesulfonyl-amino-piperidin-1-yl)-2,N-dimethyl-butyramide], 22.6 nM. `CN(Cc1ccc(C(F)(F)F)c(F)c1)C(=O)C(C)(CCN1CCC(NS(C)(=O)=O)CC1)c1ccc(Cl)c(Cl)c1` (stereo not shown) [Example 9, 2-(3,4-Dichloro-phenyl)-N-(3-fluoro-4-trifluoromethyl-benzyl)-4-(4-methanesulfonyl-amino-piperidin-1-yl)-2,N-dimethyl-butyramide]: the Ki came out at 30 nM. With `CN(Cc1ccc(Cl)c(Cl)c1)C(=O)C(C)(CCN1CCC(NS(C)(=O)=O)CC1)c1ccc(Cl)c(Cl)c1` (stereo not shown) [Example 10, N-(3,4-Dichloro-benzyl)-2-(3,4-dichloro-phenyl)-4-(4-methanesulfonyl-amino-piperidin-1-yl)-2,N-dimethyl-butyramide], the Ki is 24 nM. Same read-out and setting: as for `CC(CCN1CCC(NS(C)(=O)=O)CC1)(C(=O)NCc1ccc(Cl)c(Cl)c1)c1ccc(Cl)c(Cl)c1` (stereo not shown) [Example 11, N-(3,4-Dichloro-benzyl)-2-(3,4-dichloro-phenyl)-4-(4-methanesulfonyl-amino-piperidin-1-yl)-2-methyl-butyramide], the figure is 44.2 nM; as for `CC(CCN1CCC(NS(C)(=O)=O)CC1)(C(=O)NCc1cccc(OC(F)F)c1)c1ccc(Cl)c(Cl)c1` (stereo not shown) [Example 12, 2-(3,4-Dichloro-phenyl)-N-(3-difluoromethoxy-benzyl)-4-(4-methanesulfonyl-amino-piperidin-1-yl)-2-methyl-butyramide], 309 nM.

Take `CC(CCN1CCC(NS(C)(=O)=O)CC1)(C(=O)NCc1cc(F)ccc1C(F)(F)F)c1ccc(Cl)c(Cl)c1` (stereo not shown) [Example 13, 2-(3,4-Dichloro-phenyl)-N-(5-fluoro-2-trifluoromethyl-benzyl)-4-(4-methanesulfonyl-amino-piperidin-1-yl)-2-methyl-butyramide]: the Ki is 580 nM. With `CC(CCN1CCC(NS(C)(=O)=O)CC1)(C(=O)NCc1ccc(C(F)(F)F)cc1)c1ccc(Cl)c(Cl)c1` (stereo not shown) [Example 14, 2-(3,4-Dichloro-phenyl)-4-(4-methanesulfonyl-amino-piperidin-1-yl)-2-methyl-N-(4-trifluoromethyl-benzyl)-butyramide], the Ki was 58 nM. On to `CC(CCN1CCC(NS(C)(=O)=O)CC1)(C(=O)NCc1cc(C(F)(F)F)ccc1F)c1ccc(Cl)c(Cl)c1` (stereo not shown) [Example 15, 2-(3,4-Dichloro-phenyl)-N-(2-fluoro-5-trifluoromethyl-benzyl)-4-(4-methanesulfonyl-amino-piperidin-1-yl)-2-methyl-butyramide], for which the Ki was 166 nM. On to `CC(NC(=O)C(C)(CCN1CCC(NS(C)(=O)=O)CC1)c1ccc(Cl)c(Cl)c1)c1ccc(Cl)cc1` (stereo not shown) [Example 16, N-[1-(4-Chloro-phenyl)-ethyl]-2-(3,4-dichloro-phenyl)-4-(4-methanesulfonyl-amino-piperidin-1-yl)-2-methyl-butyramide], for which the Ki was 173 nM. Same read-out and setting: under `COc1cccc(CN(C)C(=O)C(C)(CCN2CCC(NS(C)(=O)=O)CC2)c2ccc(Cl)c(Cl)c2)c1` (stereo not shown) [Example 17, 2-(3,4-Dichloro-phenyl)-4-(4-methanesulfonyl-amino-piperidin-1-yl)-N-(3-methoxy-benzyl)-2,N-dimethyl-butyramide] stands 213 nM. On to `CN(Cc1ccccc1Cl)C(=O)C(C)(CCN1CCC(NS(C)(=O)=O)CC1)c1ccc(Cl)c(Cl)c1` (stereo not shown) [Example 18, N-(2-Chloro-benzyl)-2-(3,4-dichloro-phenyl)-4-(4-methanesulfonyl-amino-piperidin-1-yl)-2,N-dimethyl-butyramide], for which the inhibition constant (Ki) came to 33.3 nM. On to `CC(NC(=O)C(C)(CCN1CCC(NS(C)(=O)=O)CC1)c1ccc(Cl)c(Cl)c1)c1ccc(Cl)c(Cl)c1` (stereo not shown) [Example 19, 2-(3,4-Dichloro-phenyl)-N-[1-(3,4-dichloro-phenyl)-ethyl]-4-(4-methanesulfonyl-amino-piperidin-1-yl)-2-methyl-butyramide], for which the Ki came to 59.9 nM.

The assay is the same for the next values; noted with them: representative compounds; [3H]SR142801, HEK293 membranes, human NK3 receptor; read-out: Ki NK3 h.
As for `CCN(C(C)=O)C1CCN(CCC(C)(C(=O)N[C@@H](CO)c2ccc(F)cc2)c2ccc(Cl)c(Cl)c2)CC1` (single isomer, unassigned; epimer 1) [Example 166], the Ki came out at 2.2 nM.

Turning to `CCCN(C(C)=O)C1CCN(CCC(C)(C(=O)N[C@@H](CO)c2ccc(F)cc2)c2ccc(Cl)c(Cl)c2)CC1` (single isomer, unassigned; epimer 2) [Example 163], the Ki worked out at 5.6 nM.
